For data set [1], the target named is T1, PfSpdS (Plasmodium falciparum, UniProt Q8II73). The note with it: cited from earlier work; for IC50: P. falciparum, read-out: Enzyme inhibition, IC50.
Data set [2] concerns the target T1, PfSpdS. The data set can be described thus: biochemical. It is filed as biochemical. The following applies: for inhibition at 100 µM: read-out: % Inhibition (at 100 μM); for fold difference in IC50 between compound 8 and compound 9: PfSpdS; for pseudo-substrate for PfSpdS: unpublished results of the authors.
Protocol: A 29 amino acid N-terminus deletion mutant of PfSpdS cloned into pTRCHisB (Invitrogen) was expressed in E. coli BLR (DE3), purified and assayed as described by Haider et al. [18]. […] Stock solutions of the inhibitors were prepared in dddH2O. For the 100 μM assays, 1 μg purified PfSpdS, 50 μM RS-dcAdoMet, 100 nCi [2,3-^3H] putrescine hydrochloride (60 Ci/mmol; American Radiolabelled Chemicals, Inc, Minnesota, USA) and 50 μM unlabelled putrescine dihydrochloride (Sigma) were used. […] All inhibition assays were performed in triplicate.
Data set [3] deals with mammalian SpdS. The following applies: cited from earlier work; for IC50: Mammalian, read-out: Enzyme inhibition, IC50.
Data set [4] concerns mammalian SpdS. Briefly: Mammalian spermidine synthase enzyme inhibition. It is filed as biochemical.
Data set [5] concerns mammalian spermine synthase. Also noted: method as in Shirahata et al. [22]. The following applies: ref Shirahata et al. [22], cited from earlier work.
Data set [6] deals with the molecule itself. Briefly: crystal structure; hanging drop vapour diffusion, 293 K; 25% PEG3350, 0.1 M MES pH 5.6, 0.1 M (NH4)2SO4; protein pre-incubated with 2.5 mM compound 8 and MTA; space group C121, three molecules in the asymmetric unit; interface analysed with PISA.
[7] abbreviates: ref Lakanen et al. [21], Pegg et al. [38].
The mark [8] stands for this setting: 100 μM compound, PfSpdS activity inhibited compared to untreated enzyme, mean ± SEM, 100 µM.

“Also recorded” adds a separate entry of the source. Read-outs that look alike come from different tables or passages of the source. Peptide text beside a SMILES is read from it.

T1 sequence (Q8II73 entry or part of it): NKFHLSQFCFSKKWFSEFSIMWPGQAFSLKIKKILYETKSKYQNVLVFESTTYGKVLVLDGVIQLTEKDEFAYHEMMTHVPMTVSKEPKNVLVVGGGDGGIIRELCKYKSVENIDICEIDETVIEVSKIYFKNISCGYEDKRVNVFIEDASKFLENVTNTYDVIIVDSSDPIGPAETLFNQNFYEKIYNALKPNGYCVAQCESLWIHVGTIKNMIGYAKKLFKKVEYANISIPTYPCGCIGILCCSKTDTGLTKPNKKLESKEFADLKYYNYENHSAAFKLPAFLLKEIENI

In general, IC50 refers to the concentration that inhibits the measured activity by half. With 5′-methylthioadenosine [MTA], the IC50 on PfSpdS [1] (ref Haider et al. [18]) was 159 ± 27 µM.
A word on the inhibition: it is the percentage by which the read-out fell short of the control. Turning to `C[C@H]1CC[C@H](N)CC1` [4MCHA, trans-4-methylcyclohexylamine], the IC50 was 1.4 ± 0.1 µM at PfSpdS [1] (ref Haider et al. [18]) and 1.7 µM with mammalian SpdS [3] (setting [7]). The inhibition at 100 µM on PfSpdS [2] came to 95.3 ± 0.4%.
Take `C=CCCCN` [APE, 5-amino-1-pentene]: the IC50 is 6.5 ± 2.1 µM at PfSpdS [1] (ref Haider et al. [18]) and 1.7 µM in the data set on mammalian SpdS [3] (ref Goda et al. [39]).
For `NCCCCCC(CCN)SCC1OC(n2cnc3c(N)ncnc32)C(O)C1O` (stereo not shown) [AdoDATO, S-adenosyl-1,8-diamino-3-thio-octane], the IC50 on PfSpdS [1] (ref Dufe et al. [20]) was 8.5 µM; with mammalian SpdS [3] (setting [7]), 0.05 to 0.1 µM. In addition, in the data set with mammalian SpdS [4] (ref [18],[20],[38]), the “fold lower IC50 for mammalian SpdS compared to the P. falciparum enzyme” value is 170 fold. In addition, the “fold less efficient inhibitor of mammalian SpdS than adenosylspermidine” value in the data set on mammalian SpdS [4] (ref [21],[38]) was 3-7 fold.
`CC1CCN(CCCN)CC1` [Compound 1, 1-(3-ammoniopropyl)-4-methylpiperidin-1-ium]: the inhibition at 100 µM at PfSpdS [2] was determined as 17 ± 9.4%.
As for `CN1CCC(N)CC1` [Compound 2, trans-4-amino-1-methylpiperidine], the inhibition at 100 µM at PfSpdS [2] (100 μM compound, PfSpdS activity inhibited compared to untreated enzyme, mean ± SEM) stood at 6.9 ± 5.8%.
For `NCCCC[C@H](NC(=O)[C@@H](N)Cc1ccc(O)cc1)C(N)=O` [Compound 3] (H-Tyr-Lys-NH2), the “% Inhibition (at 100 μM)” value at PfSpdS [2] (setting [8]) is “No Inhibition; also recorded: did not inhibit”.
Same read-out and setting: as for `NCCCN1CCN(CCCN)CC1` [Compound 4, 3-[4-(3-azaniumylpropyl)piperazine-1,4-diium-1-yl]propylazanium], the entry is “No Inhibition; also recorded: did not inhibit”.
For `CN1CCN(CCC(=O)NNC=C2C=CC(=O)C=C2O)CC1` [Compound 5, N’-[(2-hydroxy-4-oxocyclohexa-2,5-dien-1-ylidene)methyl]-3-(4-methylpiperazine-1,4-diium-1-yl)-propanehydrazide], the “% Inhibition (at 100 μM)” value on PfSpdS [2] (setting [8]) was “No Inhibition”; on PfSpdS [2] (100 μM compound, PfSpdS activity inhibited compared to untreated enzyme, mean ± SEM, listed as compound 5, 100 µM), “neither compound showed reduction in PfSpdS activity”.
Take `CN(C[C@H](O)CN)C[C@H](O)CN1CCCCC1` [Compound 6, [(2R)-3-azaniumyl-2-hydroxypropyl]-[(2S)-2-hydroxy-3-piperidin-1-ium-1-ylpropyl]-methylazanium]: the “% Inhibition (at 100 μM)” value is recorded as “No Inhibition” on PfSpdS [2] (setting [8]) and “neither compound showed reduction in PfSpdS activity” on PfSpdS [2] (100 μM compound, PfSpdS activity inhibited compared to untreated enzyme, mean ± SEM, listed as compound 6, 100 µM).
Consider `NCCCC[C@H](NC(=O)[C@@H](N)CCCCN)C(=O)Nc1ccc2ccccc2c1` [Compound 7, [(2S)-6-azaniumyl-1-[[(2S)-6-azaniumyl-1-(naphthalen-2-ylamino)-1-oxohexan-2-yl]amino]-1-oxohexan-2-yl]azanium], for which the “% Inhibition (at 100 μM)” value on PfSpdS [2] (setting [8]) is given as “No Inhibition”; on PfSpdS [2] (100 μM compound, PfSpdS activity inhibited compared to untreated enzyme, mean ± SEM, listed as compound 7, 100 µM), “showed no inhibition”.
Take `NCCCN[C@H]1CC[C@H](N)CC1` [Compound 8, N-(3-aminopropyl)-trans-cyclohexane-1,4-diamine]: on PfSpdS [2], the half-inhibitory concentration (IC50) was determined as 619 ± 144 µM; the “fold difference in IC50 between compound 8 and compound 9” value is given as 100 fold; the inhibition at 100 µM turned out to be 12.7 ± 9.1%; the “pseudo-substrate for PfSpdS” value is “acts as a pseudo-substrate”.
As a reminder, the Ki is a dissociation constant, usually derived from enzyme kinetics or from competition with a known ligand. A low value points to higher affinity. Take `NCCCNC1CCCCC1` [Compound 9, N-(3-aminopropyl)-cyclohexylamine]: at PfSpdS [2], half-maximal inhibition (IC50) was put at 7.4 ± 2.4 µM; the inhibition constant (Ki) was 2.8 µM; the “fold difference in IC50 between compound 8 and compound 9” value came to 100 fold; the inhibition at 100 µM is 88.3 ± 1.2%. In addition, on PfSpdS [2], the “pseudo-substrate for PfSpdS” value was “no evidence was found”. For the same molecule, on PfSpdS [2] (between compound and putrescine, preliminary kinetic experiments), the type of inhibition entry is “mixed-type competitive inhibition”. Moreover, in data set [5], the “inhibition of mammalian spermine synthase” value was “inhibitor”. For the same molecule, the “inhibition of mammalian spermine synthase” value in data set [5] (listed as compound 9) was “potent inhibitor”. Besides, the “inhibition of mammalian SpdS” value in the data set on mammalian SpdS [3] (ref Shirahata et al. [22]) is reported as “does not inhibit”. Also, the “inhibition of mammalian SpdS” value in the data set on mammalian SpdS [3] (ref Shirahata et al. [22], listed as compound 9) was “did not inhibit and not”.
For the molecule `NC1CCCCC1` [Cyclohexylamine], the IC50 at PfSpdS [1] (ref Haider et al. [18]) is 19.7 ± 3.1 µM; with mammalian SpdS [3] (ref Shirahata et al. [22]), 8.1 µM.
The Km is the concentration of substrate that gives half-maximal velocity. For `C[S+](CCCN)C[C@H]1O[C@@H](n2cnc3c(N)ncnc32)[C@H](O)[C@@H]1O` (stereo partly shown) [dcAdoMet, decarboxylated S-adenosylmethionine], the Michaelis constant (Km) was 35 µM on PfSpdS [1] (P. falciparum enzyme, ref [18],[20],[38], read-out: Km value of the enzyme for dcAdoMet) and 7 to 25 µM in the data set on mammalian SpdS [3] (mammalian enzyme, ref [18],[20],[38], read-out: Km value of the enzyme for dcAdoMet).
For `N[C@H]1CC[C@H](N)CC1` [trans-1,4-diaminocyclohexane], the “pseudo-substrate for mammalian SpdS” value in the data set with mammalian SpdS [3] (ref [22]) is ~ 12%.

B1: Plasmodium falciparum spermidine synthase lacking 39 amino acids at the N-terminus (enzyme, UniProt Q8II73 40-321, looked up)
chain: SKKWFSEFSIMWPGQAFSLKIKKILYETKSKYQNVLVFESTTYGKVLVLDGVIQLTEKDEFAYHEMMTHVPMTVSKEPKNVLVVGGGDGGIIRELCKYKSVENIDICEIDETVIEVSKIYFKNISCGYEDKRVNVFIEDASKFLENVTNTYDVIIVDSSDPIGPAETLFNQNFYEKIYNALKPNGYCVAQCESLWIHVGTIKNMIGYAKKLFKKVEYANISIPTYPCGCIGILCCSKTDTGLTKPNKKLESKEFADLKYYNYENHSAAFKLPAFLLKEIENI
notes: Plasmodium falciparum spermidine synthase (EC 2.5.1.16), protein lacking 39 amino acids at the N-terminus, cloned into the p15-TEV-LIC vector, from SGC Toronto; Crystallised with compound 8 and MTA; Three molecules in the asymmetric unit; subunits B and C form the homodimer; also called PfSpdS; 39 amino acid N-terminal truncated PfSpdS protein; source: expression and isolation according to Dufe …
In the case of B1, in data set [6], the binding result was “binds”.
